Patent US20060069132A1, “Azolecarboxamide herbicides” (priority 2004, published 2006)

Assays:
velvetleaf = assay: Test B pre-/postemergence herbicide test; assay type: in vivo, Abutilon theophrasti; settings: for Velvetleaf plant response rating: postemergence
In short: (§1)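 Plants compared with untreated controls 13–15 days post-treatment and given a visual 0–100 injury score. Applications: preemergence to seeds; postemergence at 1- to 4-leaf (2–18 cm); paddy species flooded, 2-leaf stage. Vehicle non-phytotoxic, surfactant included.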

wild oat = assay: Test B postemergence herbicide test; assay type: in vivo, Avena fatua; settings: postemergence
In short: (§2)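 Formulated test chemicals went onto postemergence plants measuring 2 to 18 cm, at one to four leaves. For the paddy assay, species had reached two leaves. Scoring took place 13–15 days later by eye, relative to untreated plants, using 0 for no effect up to 100 for full control.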

giant foxtail = assay: Test B pre-/postemergence herbicide test; assay type: in vivo, Setaria faberi; settings: for Foxtail, Giant plant response rating: postemergence
In short: as §1

barnyardgrass [1] = assay: Test B flooded paddy test; assay type: in vivo, Echinochloa crus-galli; settings: 1000 g ai/ha, scale 0 to 100 (0 no effect, 100 complete control)
In short: (§3)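 Treated at 2-leaf (paddy) or 1–4-leaf, 2–18 cm (postemergence); greenhouse 13–15 d; visual score vs control, 0 none to 100 complete control; dash = not tested.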

wheat = assay: Test B postemergence herbicide test; assay type: in vivo, Triticum aestivum; design: key to Wheat plant response rating: 0 = no effect, 100 = complete control; settings: postemergence
In short: as §2

morningglory = assay: Test B pre-/postemergence herbicide test; assay type: in vivo, Ipomoea coccinea; settings: for Morningglory plant response rating: postemergence
In short: (§4)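 Herbicidal effect was judged by eye on a 0–100 scale after plants stood 13 to 15 days in the greenhouse following pre- or postemergence treatment with surfactant-containing formulations.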

ducksalad [2] = assay: Test C flooded paddy test; assay type: in vivo, Heteranthera limosa
cocklebur = assay: Test B pre-/postemergence herbicide test; assay type: in vivo, Xanthium strumarium; settings: for Cocklebur plant response rating: postemergence, scale 0 (no effect) to 100 (complete control)
In short: as §4

rice [3] = assay: Test B pre-/postemergence herbicide test; assay type: in vivo, Oryza sativa; settings: 0 = no effect, 100 = complete control, preemergence
In short: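 Greenhouse pot assay with simultaneous preemergence (treated seed) and postemergence (2–18 cm seedlings) applications of surfactant-containing, non-phytotoxic solvent formulations. Response scored visually 13–15 days later on a 0–100 scale, 100 meaning complete control.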

rice [4] = assay: Test C flooded paddy test; assay type: in vivo, Oryza sativa
In short: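 Plants were grown to the 1- to 4-leaf stage (2–18 cm) and then treated postemergence, or grown to the 2-leaf stage for the flooded paddy test. They were held in a greenhouse for 12 to 14 days and then scored by eye against controls, where 0 is no effect and 100 is complete control.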

[5] = tested on: small flower umbrella sedge; assay: Test B flooded paddy test; assay type: in vivo, Cyperus difformis; settings: 1000 g ai/ha, scale 0 to 100 (0 no effect, 100 complete control)
In short: as §3

blackgrass = assay: Test B postemergence herbicide test; assay type: in vivo, Alopecurus myosuroides; settings: postemergence, visual rating, scale 0 (no effect) to 100 (complete control)
In short: as §3

ducksalad [6] = assay: Test B flooded paddy test; assay type: in vivo, Heteranthera limosa; settings: 1000 g ai/ha, scale 0 to 100 (0 no effect, 100 complete control)
In short: as §3

[7] = tested on: smallflower umbrella sedge; assay: Test C flooded paddy test; assay type: in vivo, Cyperus difformis
large crabgrass = assay: Test B pre-/postemergence herbicide test; assay type: in vivo, Digitaria sanguinalis; settings: for Crabgrass, Large plant response rating: postemergence
In short: as §1

barnyardgrass [8] = assay: Test B pre-/postemergence herbicide test; assay type: in vivo, Echinochloa crus-galli; settings: for Barnyardgrass plant response rating: postemergence, scale 0 (no effect) to 100 (complete control)
In short: as §4

Surinam grass = assay: Test B pre-/postemergence herbicide test; assay type: in vivo, Urochloa decumbens; settings: for Surinam Grass plant response rating: postemergence
In short: as §1

pigweed = assay: Test B pre-/postemergence herbicide test; assay type: in vivo, Amaranthus retroflexus; settings: for Pigweed plant response rating: postemergence
In short: as §1

barnyardgrass [9] = assay: Test C flooded paddy test; assay type: in vivo, Echinochloa crus-galli
In short: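 Greenhouse test with a 12–14 day hold after application and visual comparison with controls. Emerged plants were 1- to 4-leaf stage (2–18 cm) when sprayed postemergence, and the paddy barnyardgrass was at 2 leaves under flooded conditions. 100 = complete control.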

rice [10] = assay: Test B flooded paddy test; assay type: in vivo, Oryza sativa; settings: 1000 g ai/ha, scale 0 to 100 (0 no effect, 100 complete control)
In short: as §2

corn = assay: Test B pre-/postemergence herbicide test; assay type: in vivo, Zea mays; settings: for Corn plant response rating: postemergence
In short: as §1

lambsquarters = assay: Test B pre-/postemergence herbicide test; assay type: in vivo, Chenopodium album; settings: for Lambsquarters plant response rating: postemergence
In short: as §1

[11] = 125 g ai/ha, 0 = no effect, 100 = complete control, preemergence
[12] = 500 g ai/ha, visual rating, 0 = no effect, 100 = complete control, preemergence
[13] = 125 g ai/ha, visual rating, scale 0 (no effect) to 100 (complete control)
[14] = 500 g ai/ha, scale 0 to 100, 0 is no effect, 100 is complete control
[15] = 125 g ai/ha, scale 0 to 100 (0 no effect, 100 complete control)
[16] = 250 g ai/ha, scale of 0 to 100, 0 is no effect, 100 is complete control
[17] = 500 g ai/ha, visual rating after 12 to 14 days, scale 0 to 100 (0 no effect, 100 complete control)

With CCn1nc(C(C)(C)C)cc1C(=O)Nc1ccnc(C(=O)N(C)C)c1 [Compound 256] the “Velvetleaf plant response rating (0 to 100 scale)” value (velvetleaf; [11]) was 0, the “Plant response rating, Velvetleaf” value (velvetleaf; [12]) was 80 and the “Velvetleaf plant response rating” value (velvetleaf; [13]) was 10. For the same compound, the “Velvetleaf plant response rating” value (velvetleaf; [14]) was 30, the “Oat, Wild plant response rating” value (wild oat; [13]) was 10 and the “Oat, Wild plant response rating” value (wild oat; [14]) was 30. The “Foxtail, Giant plant response rating (0 to 100 scale)” value (giant foxtail; [11]) was 0, the “Plant response rating, Foxtail, Giant” value (giant foxtail; [12]) was 60 and the “Foxtail, Giant plant response rating” value (giant foxtail; [13]) was 0. The “Foxtail, Giant plant response rating” value (giant foxtail; [14]) was 50, the “Barnyardgrass plant response rating” value (barnyardgrass [1]) was 30 and the “Wheat plant response rating” value (wheat; [13]) was 10. The “Wheat plant response rating” value (wheat; [14]) was 30, the “Morningglory plant response rating (0 to 100 scale)” value (morningglory; [11]) was 0 and the “Plant response rating, Morningglory” value (morningglory; [12]) was 0. For the same compound, the “Morningglory plant response rating” value (morningglory; [13]) was 0, the “Morningglory plant response rating” value (morningglory; [14]) was 10 and the “Ducksalad plant response rating” value (ducksalad [2]; 62 g ai/ha, scale 0 to 100) was 0. For the same compound, the “Ducksalad plant response rating” value (ducksalad [2]; [15]) was 0, the “Ducksalad plant response rating” value (ducksalad [2]; [16]) was 15 and the “Plant response rating, Ducksalad” value (ducksalad [2]; [17]) was 65. For the same compound, the “Cocklebur plant response rating (0 to 100 scale)” value (cocklebur; [11]) was 0, the “Plant response rating, Cocklebur” value (cocklebur; [12]) was 0 and the “Cocklebur plant response rating” value (cocklebur; 125 g ai/ha, visual rating) was 0. The “Cocklebur plant response rating” value (cocklebur; 500 g ai/ha, visual rating) was 0, the “Rice plant response rating (0 to 100 scale)” value (rice [3]; 125 g ai/ha) was 30 and the “Plant response rating, Rice” value (rice [3]; 500 g ai/ha, visual rating) was 80. For the same compound, the “Rice plant response rating” value (rice [4]; 62 g ai/ha, scale 0 to 100) was 0, the “Rice plant response rating” value (rice [4]; [15]) was 0 and the “Rice plant response rating” value (rice [4]; [16]) was 0. The “Plant response rating, Rice” value (rice [4]; [17]) was 15, the “Sedge, Umbrella plant response rating” value [5] was 70 and the “Blackgrass plant response rating” value (blackgrass; 125 g ai/ha) was 0. The “Blackgrass plant response rating” value (blackgrass; 500 g ai/ha) was 20, the “Ducksalad plant response rating” value (ducksalad [6]) was 90 and the “Sedge, Umbrella plant response rating” value ([7]; 62 g ai/ha, scale 0 to 100) was 0. The “Sedge, Umbrella plant response rating” value [7, 15] was 0, the “Sedge, Umbrella plant response rating” value [7, 16] was 60 and the “Plant response rating, Sedge, Umbrella” value [7, 17] was 60. The “Crabgrass, Large plant response rating (0 to 100 scale)” value (large crabgrass; [11]) was 10, the “Plant response rating, Crabgrass, Large” value (large crabgrass; [12]) was 100 and the “Crabgrass, Large plant response rating” value (large crabgrass; [13]) was 0. For the same compound, the “Crabgrass, Large plant response rating” value (large crabgrass; [14]) was 20, the “Barnyardgrass plant response rating (0 to 100 scale)” value (barnyardgrass [8]; [11]) was 0 and the “Plant response rating, Barnyardgrass” value (barnyardgrass [8]; [12]) was 70. For the same compound, the “Barnyardgrass plant response rating” value (barnyardgrass [8]; 125 g ai/ha, visual rating) was 0, the “Barnyardgrass plant response rating” value (barnyardgrass [8]; 500 g ai/ha, visual rating) was 60 and the “Surinam Grass plant response rating (0 to 100 scale)” value (Surinam grass; [11]) was 60. For the same compound, the “Plant response rating, Surinam Grass” value (Surinam grass; [12]) was 60, the “Surinam Grass plant response rating” value (Surinam grass; [13]) was 0 and the “Surinam Grass plant response rating” value (Surinam grass; [14]) was 20. For the same compound, the “Plant response rating, Pigweed” value (pigweed; [12]) was 100, the “Pigweed plant response rating” value (pigweed; [13]) was 30 and the “Pigweed plant response rating” value (pigweed; [14]) was 60. The “Barnyardgrass plant response rating” value (barnyardgrass [9]; 62 g ai/ha, scale 0 to 100 (0 no effect, 100 complete control)) was 0, the “Barnyardgrass plant response rating” value (barnyardgrass [9]; [15]) was 0 and the “Barnyardgrass plant response rating” value (barnyardgrass [9]; [16]) was 0. The “Plant response rating, Barnyardgrass” value (barnyardgrass [9]; [17]) was 0, the “Rice plant response rating” value (rice [10]) was 50 and the “Corn plant response rating (0 to 100 scale)” value (corn; [11]) was 0. The “Plant response rating, Corn” value (corn; [12]) was 0, the “Corn plant response rating” value (corn; [13]) was 0 and the “Corn plant response rating” value (corn; [14]) was 10. For the same compound, the “Plant response rating, Lambsquarters” value (lambsquarters; [12]) was 100, the “Lambsquarters plant response rating” value (lambsquarters; [13]) was 30 and the “Lambsquarters plant response rating” value (lambsquarters; [14]) was 60.
